# US20120059021A1, “COMPOSITIONS AND METHODS FOR TREATING CANCER AND METHODS FOR PREDICTING A RESPONSE TO SUCH TREATMENTS” (UNIVERSITY OF WASHINGTON, priority 2008, published 2012)
# Entries after “also recorded” stand apart in the source; their conditions may differ. Where a SMILES comes first, the peptide text is derived from it. The star is where a group is joined. Cbz = O=C(OCc1ccccc1)*; CH2F = FC*
# What was measured:
# [1] = system: AXIN1; assay: Immunoblot of steady-state AXIN1 levels in melanoma cells; assay type: cell-based, human; conditions: for levels of AXIN1 following treatment with WNT3A and PLX4720: A375, 10 μM, 8 hours, WNT3A CM and 2 μM PLX4720
# [2] = system: A375 cells; assay: Immunoblot of apoptosis markers (cleaved caspase-3, cleaved PARP1) in A375 cells; assay type: cell-based, human
# [3] = system: BAD and Bim (BCL2L11); assay: Immunoblot of BH3-only proteins BAD and Bim in A375 cells; assay type: cell-based, human; conditions: A375, addition of Z-VAD-FMK, 24 hours
# [4] = system: Wnt/β-catenin signaling; assay: β-catenin activated reporter (BAR) luciferase assay in A375 melanoma cells; conditions: for Wnt/β-catenin signaling (BAR activity): A375, in the presence of WNT3A
# Excerpt: By way of non-limiting example, Wnt/β-catenin signaling can be measured using the BAR reporter described in detail elsewhere herein. Briefly, the BAR (β-catenin activated reporter) is a lentiviral plasmid which provides for expression of luciferase in response to Wnt/β-catenin signaling. Output can be measured with an automated luminescence plate reader.
# Detailed information on the β-catenin activated reporter (BAR) has been previously described (23). Briefly, the β-catenin activated reporter (pBAR) is a lentiviral plasmid that contains 12 TCF/LEF binding sites (5′-[sequence]-3′) each separated by distinct 5 base-pair linkers upstream of a minimal promoter and the firefly luciferase open reading frame. The reporter also contains a separate PGK promoter that constitutively drives the expression of a puromycin resistance gene for mammalian cell selection. […] PLX4720 was purchased from Symansis (Australia cat# SY-PLX4720). CHIR99021 was purchased from Axon MedChem (Gronigen, Netherlands catalog #Axon1386). Z-VAD-FMK was purchased from R&D systems (Minneapolis, Minn. cat# FMKSP01).
# Low throughput BAR reporter assays. Cells were plated in 96-well plates.
# [5] = system: GSK3β; assay: Immunoblot for activating auto-phosphorylation of GSK3β in A375 cells; assay type: cell-based, human
# [6] = system: A375; assay: qPCR of endogenous Wnt target gene AXIN2, A375; assay type: cell-based, human; conditions: A375, stimulated Wnt/β-catenin signaling
# Excerpt: RNA purification and qRT-PCR analysis. RNA was purified using the RNeasy kit following the manufacturer's protocol (Qiagen; Maryland, Md.). cDNA was synthesized using RevertAid™ M-MuLV Reverse Transcriptase (Fermentas; Ontario, CAN). Light Cycler FastStart DNA Master SYBR Green1 (Roche; Mannheim, Germany) was used for real-time PCR as previously described (53). Quantitative PCR results presented in the manuscript are averages of a minimum of three biologic replicates.
# [7] = system: ppERK1/2; assay: Immunoblot for dual-phosphorylated ERK1/2 in melanoma cells; assay type: cell-based, human; conditions: for dual-phosphorylated ERK1/2 (ppERK1/2): A375
# Excerpt: By way of non-limiting example, inhibition of ERK signaling can be measured by determining the level of dual-phosphorylated ERK1/2 (ppERK1/2) as described in detail elsewhere herein. In brief, the level of ppERK1/2 can be detected by immunoblot assay.
# [8] = system: β-catenin; assay: Immunoblot for β-catenin phosphorylation at Ser33/Ser37/Thr41 in A375 cells; assay type: cell-based, human
# [9] = system: ERK1/2 phosphorylation; assay: ERK1/2 phosphorylation in human epidermal melanocytes; assay type: cell-based; conditions: HEMs
# Excerpt: Cell Lines. The human melanoma cell lines A375, A2058 and Me1624 were obtained from Cassian Yee (Fred Hutchinson Cancer Research Institute; Seattle, Wash.). The human melanoma cell lines COLO-829, SKMEL28, SKMEL5 were purchased from ATCC (Manassas, Va.). Human Epidermal Melanocytes, adult, lightly pigmented donor, (HEMa-LP) (C0245C) were purchased from Invitrogen (Carlsbad, Calif.). Stable BAR cell lines were generated as previously described (23). BAR luciferase cell lines were also infected with a lentivirus carrying Renilla luciferase driven by a constitutive EFlalpha promoter.
# Cell Culture. The human melanoma lines A375, A2058 were cultured in DMEM supplemented with 5% FBS and 1% antibiotic. The human melanoma lines SK-MEL-5 and SK-MEL-28 were grown in EMEM supplemented with 10% FBS and 1% antibiotic. The human melanoma lines COLO-829 and MEL-624 were grown in RPMI supplemented with 10% FBS and 1% antibiotic HEMa-LP cells were cultured in medium 254 supplemented with 1% HMGS and 1% antibiotic (Invitrogen Carlsbad, Calif.). Synthetic siRNAs were transfected into cultured cells at a final concentration of 20 nM using RNAiMAX (Invitrogen; Grand Island, N.Y.).
# [10] = system: Wnt/β-catenin signaling; assay: WNT3A-mediated reporter activity in primary melanocytes; assay type: cell-based, human; conditions: HEMs
# [11] = XAV939 in the presence of U0126 or PLX4720
structure (smiles),measurement,setting,value
COC(=O)C[C@H](NC(=O)[C@H](C)NC(=O)[C@@H](NC(=O)OCc1ccccc1)C(C)C)C(=O)CF [Z-VAD-FMK] (Cbz-Val-Ala-Asp(OMe)-CH2F),loss of steady-state AXIN1 with WNT3A and PLX4720,"[1]; A375, Z-VAD-FMK, 24 hours",did not affect the loss of steady-state AXIN1
same,apoptosis with WNT3A and PLX4720,"[2]; A375, Z-VAD-FMK",able to inhibit apoptosis
same,PARP1 cleavage induced by WNT3A and PLX4720,"[2]; A375, addition of Z-VAD-FMK, 24 hours",completely abolished
same,increase in BimL and BimS with WNT3A and PLX4720,[3],not blocked
same,Wnt/β-catenin activation as measured by BAR,"[4]; A375, Z-VAD-FMK with WNT3A and 2 μM PLX4720, 24 hours",augments Wnt/β-catenin activation
CCN(CC)CCCC(C)Nc1ccnc2cc(Cl)ccc12 (stereo not drawn) [chloroquine],levels of AXIN1 following treatment with WNT3A and PLX4720,[1],not
"Cc1c[nH]c(-c2cnc(NCCNc3ccc(C#N)cn3)nc2-c2ccc(Cl)cc2Cl)n1 [CHIR99021, 6-[[2-[[4-(2,4-dichlorophenyl)-5-(5-methyl-1H-imidazol-2-yl)-2-pyrimidinyl]amino]ethyl]amino]-3-pyridinecarbonitrile]",apoptosis (cleaved caspase-3 immunoblot),"[2]; A375, 5 μM CHIR99021 and 2 μM PLX4720, 36 hours",enhanced apoptosis in combination with PLX4720
same,activating auto-phosphorylation of GSK3B,[5],loss of the activating auto-phosphorylation at Tyr216
"N#CC(=C(/N)Sc1ccccc1N)/C(C#N)=C(\N)Sc1ccccc1N [U0126, 1,4-diamino-2,3-dicyano-1,4-bis [2-aminophenylthio]butadiene]",levels of the endogenous Wnt/β-catenin target gene AXIN2,[6],dose-dependent increase
same,steady-state levels of AXIN1,[1]; absence of rWnt3A,slightly decreased
same,steady-state levels of AXIN1,[1]; presence of rWnt3A,markedly diminished
same,dual-phosphorylated ERK1/2 (ppERK1/2),[7],inhibition of ppERK1/2
same,ERK1/2 phosphorylation,[7]; six established melanoma lines harboring the BRAF^V600E mutation,inhibition of ERK1/2 phosphorylation
same,Wnt/β-catenin signaling (BAR activity),[4],synergistically enhanced Wnt/β-catenin activation; also recorded: dose-dependent increase in stimulated Wnt/β-catenin signaling
same,phosphorylation of β-catenin at GSK3β sites (Ser33/Ser37/Thr41),[8],decreased phosphorylation of β-catenin
same,activating auto-phosphorylation of GSK3B,[5],loss of the activating auto-phosphorylation of GSK3B at Tyr117
same,ERK1/2 phosphorylation,[9],inhibits ERK1/2 phosphorylation in a dose-dependent manner
same,Wnt/β-catenin signaling,[10],inhibited Wnt/β-catenin signaling
"Cn1cnc2c(F)c(Nc3ccc(Br)cc3Cl)c(C(=O)NOCCO)cc21 [AZD6244, 6-(4-Bromo-2-chloro-phenylamino)-7-fluoro-3-methyl-3H-benzoimidazole-5-carboxylic acid (2-hydroxy-ethoxy)-amide]",dual-phosphorylated ERK1/2 (ppERK1/2),[7],inhibition of ppERK1/2
same,Wnt/β-catenin signaling (BAR activity),[4],synergistically enhanced Wnt/β-catenin activation
Oc1nc(-c2ccc(C(F)(F)F)cc2)nc2c1CSCC2 [XAV939],steady-state levels of AXIN1,"[1]; XAV939, absence and presence of rWnt3A",increases steady-state levels of AXIN1
same,AXIN1 protein levels,[1]; [11],elevate AX1N1 protein levels to above baseline levels
same,reversal of enhancement of Wnt/β-catenin signaling by MAPK inhibition,[4]; [11],unable to completely reverse the enhancement of Wnt/β-catenin signaling by MAPK inhibition
CC(C)C[C@@H](C=O)NC(=O)[C@H](CC(C)C)NC(=O)[C@H](CC(C)C)NC(=O)OCc1ccccc1 [MG132] (Cbz-Leu-Leu-Leu-aldehyde),levels of AXIN1 following treatment with WNT3A and PLX4720,[1],increased the levels of AXIN1
